{
  "source": "patent US11225507B2",
  "about": "“Conformation switchable antimicrobial peptides and methods of using the same” (priority 2017, dated 2022)",
  "key": {"[1]": {"tested_on": "E. coli DH5α", "assay": "Minimal inhibition concentration (MIC), E. coli DH5α", "type": "cell-based, Escherichia coli", "details": "pH 7.4", "procedure": "Minimal inhibition concentration (MIC). Gram-negative bacteria, DH5α and MG1655 (E. coli) were grown in LB medium at 37° C. For determination of the MIC, polypeptides were dissolved in media using serial dilutions from a stock solution. Into each well of a 96-well plate was added 200 μL of each concentration and 2 μL of bacteria (1×10^8 CFU (colony forming units)) in medium. The plate was incubated at 37° C. The optical density readings of microorganism solutions were measured after 24 h incubation. The MIC was considered as the lowest concentration of peptide where no visual growth of bacteria was detected."}, "[2]": {"assay": "Toxicity of PL2 in vivo after oral gavage", "parameters": "species or system mice", "details": "mouse", "source_text": "Toxicity of PL2 in vivo. […] Mice were sacrificed on day 5, and the blood samples were collected for the analysis of alanine aminotransferase (ALT), aspartate aminotransferase (AST), creatinine, urea nitrogen, sodium ion and potassium ion levels. The colonic segment, stomach, liver, small intestine, kidney and feces of each mouse was gathered and homogenized with cold PBS (pH7.4). The stomachs were used to determine the expression of caspase 3 and caspase 8 using Caspase 3 Assay Kit (Sigma) and Caspase 8/FLICE Colorimetric Kit (Life technology), respectively. The colonic segment and feces were used to extract bacterial DNA. The stomach, small intestine, liver, and kidney were kept in formalin for H&E staining. The stomachs were also kept in formalin for terminal deoxynucleotidyl transferase dUTP nick end labeling (TUNEL) assay (S7100|ApopTag® Peroxidase In Situ Apoptosis Detection Kit). […] The inflammation and injury of stomach were scored by Dr. Liu in a blind manner based on the H&E staining. Inflammation was graded on a 0-3 ordinal scale based on the Sydney System as follows: chronic inflammation (mononuclear cell infiltration independent of lymphoid follicles); grade 0, no inflammation; grade 1, mild inflammation (slight increase in mononuclear cells); grade 2, moderate inflammation (dense but focal mononuclear inflammatory cells); and grade 3, severe inflammation (dense and diffuse mononuclear inflammatory cells). The appearance of the mucosa was graded as follows: 0, normal; 1, spotty changes in cellular staining characteristics of some surface epithelial cells in an otherwise normal mucosa (mild injury); 2, more generalized changes and/or disruption of the surface epithelium in several areas (moderate injury); 3, extensive mucosal destruction (severe injury)."}},
  "data": [
    {"substance": "(PGA)18-r-(PHLG-MHH)20 [PL2]", "values": [
      {"measurement": "minimal inhibitory concentration (MIC)", "setting": "[1]", "result": "higher than 70 μM"},
      {"measurement": "ALT", "setting": "[2]", "result": "37.3 ± 0.5", "unit": "U/L"},
      {"measurement": "AST", "setting": "[2]", "result": "120.3 ± 17.9", "unit": "U/L"},
      {"measurement": "Creatinine", "setting": "[2]", "result": "8.7 ± 0.9", "unit": "µM"},
      {"measurement": "Potassium ion", "setting": "[2]", "result": "8.1 ± 0.2", "unit": "mM"},
      {"measurement": "Sodium ion", "setting": "[2]", "result": "149.4 ± 1.6", "unit": "mM"},
      {"measurement": "Urea nitrogen", "setting": "[2]", "result": "6.8 ± 0.6", "unit": "mM"},
      {"measurement": "histology of intestines, liver, and kidney (H&E staining)", "setting": "[2]", "result": "barely detectable histological abnormality"}
    ]}
  ]
}
